From patent publication US20190352297A1, “SELECTIVE AURORA A KINASE INHIBITORS” (UNIVERSITAT BERN, priority 2017, published 2019)
“Also recorded” adds a separate entry of the source. Read-outs that look alike come from different tables or passages of the source.

Legend:
Aurora A bound to TPX2 = target: T1, Aurora A bound to TPX2 (Homo sapiens, UniProt O14965); experiment: Aurora A kinase activity and inhibition in the presence of TPX2; format: biochemical; details: TPX2 present
T1 construct: human Aurora A kinase domain (residues 122-403 in the pET24-d vector); His-tag (cleaved yes); made in house; host or cells: E. coli
T1 sequence (O14965 122-403): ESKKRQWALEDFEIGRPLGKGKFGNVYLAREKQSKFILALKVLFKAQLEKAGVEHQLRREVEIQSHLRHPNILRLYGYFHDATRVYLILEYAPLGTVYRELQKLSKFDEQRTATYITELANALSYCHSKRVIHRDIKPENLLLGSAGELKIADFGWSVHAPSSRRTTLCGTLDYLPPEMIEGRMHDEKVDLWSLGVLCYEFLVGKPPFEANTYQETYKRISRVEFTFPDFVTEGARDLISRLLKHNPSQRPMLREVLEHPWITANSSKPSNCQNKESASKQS
Protocol: Aurora A and AuroraB kinases were assayed using the homogeneous time-resolved fluorescence (HTRF) KinEASE STK2 kit from Cisbio (France). […] For both enzymes, the reactions were run for 30 min at room temperature and stopped by the addition of 10 μL of detection buffer containing EDTA, antiphospho-Ser/Thr antibody labelled with europium cryptate, and XL-665 conjugated streptavidin (62.5 nM final concentration). After incubation at room temperature for one hour, fluorescence was measured at 620 nm (europium cryptate) and 665 nm (XL-665) after excitation at 317 nm (lag time 60 μs, integration time 500 μs) using a Tecan Infinite M1000 PRO microplate reader (Greiner 384-well plates, white, non-binding, small volume). The ratio of fluorescence (665 nm/620 nm) was calculated for each well and the results were expressed as follows: specific signal=ratio (sample)−ratio (negative control), where ratio=665 nm/620 nm×10^4. […] Each concentration was measured in duplicates, and two independent determinations were made for each IC50 value. IC50 curves were generated using a four-parameter logistic model (XLfit from IDBS).

pThr288 Aurora A = experiment: Phosphorylation of Aurora A Thr288 in cells; format: cell-based, human; details: cells; read-out: cellular IC50 (pT288), phosphorylation of Aurora A Thr288
Protocol: (§1) HeLa Kyoto cells were cultured in high-glucose DMEM with GlutaMAX (Life Technologies) media supplemented with 10% fetal calf serum (FCS) in a humidified 5% CO2 incubator at 37° C. For plasmid transfections, cells were seeded at 80-90% confluence. 4 μg of plasmid DNA in 100 μl OptiMEM and 4 μl of Lipofectamine 2000 (Life Technologies) in 100 μl OptiMEM were incubated in parallel for 5 minutes, mixed for 20 minutes and added to each well. All Aurora A clones were constructed using full-length Aurora A as a template with appropriate PCR primer pairs. […] GFP-Aurora AR137A and GFP-Aurora AW277A were engineered using a site directed mutagenesis kit (Agilent Technologies, no. 210515) with appropriate primers. For determining the mitotic index and the chromosome misalignment phenotype, cells were incubated with various concentrations of compounds for 20 h before analysis. Cells were likewise treated with 0.25 μM MLN8237 (Selleckchem, no. S1133) or 5 μM ZM447439 (Selleckchem, no. S1103). For flow cytometry analysis, 50 nM […] and 2.5 μM ZM447439 were used. For rescue experiments, HeLa Kyoto cells were first transfected with GFP-Aurora A, GFP-Aurora AR137A or GFP-Aurora AW277A for 20 h, followed by incubation with 9 for another 20 h before cells were fixed with cold methanol and stained. To assess the impact of compound 9 on cell cycle progression, DNA content was analyzed after propidium iodide staining using FACS (BD Accuri C6 flow cytometer).
For immunofluorescence, cells were fixed in cold methanol, washed in PBT (PBS supplemented with 0.05% Tween-20) and stained with the following primary antibodies: 1:200 rabbit anti-pT288 (Cell Signaling, C39D8), 1:200 rabbit anti-pH3S10 (Cell Signaling, D2C8), 1:500 mouse anti-α-tubulin (Transduction Laboratories, 612709), 1:300 mouse anti-GFP (MAB3580, Millipore), 1:200 anti-TPX2 (Santa Cruz Biotechnology, sc-32863), anti-Aurora A (Invitrogen, 458900). Secondary antibodies were anti-mouse conjugated to Alexa488 or Alexa568, as well as anti-rabbit conjugated to Alexa488 or Alexa568, all used at 1:500 (Invitrogen). […]

HeLa Kyoto cells [1] = experiment: Chromosome misalignment during metaphase; format: cell-based, human; details: for misaligned chromosomes: HeLa Kyoto cells
Protocol: as §1
(§2) For immunofluorescence, cells were fixed in cold methanol, washed in PBT (PBS supplemented with 0.05% Tween-20) and stained with the following primary antibodies: 1:200 rabbit anti-pT288 (Cell Signaling, C39D8), 1:200 rabbit anti-pH3S10 (Cell Signaling, D2C8), 1:500 mouse anti-α-tubulin (Transduction Laboratories, 612709), 1:300 mouse anti-GFP (MAB3580, Millipore), 1:200 anti-TPX2 (Santa Cruz Biotechnology, sc-32863), anti-Aurora A (Invitrogen, 458900). Secondary antibodies were anti-mouse conjugated to Alexa488 or Alexa568, as well as anti-rabbit conjugated to Alexa488 or Alexa568, all used at 1:500 (Invitrogen). Confocal images were acquired on a Zeiss LSM 710 confocal microscope equipped with a Axiocam MRm (B/VVW) CCD camera using a 63×NA 1.0 oil objective and processed in ImageJ and Adobe Photoshop, maintaining relative image intensities within a series.

[2] = system: phospho-Histone H3 Ser10 (Aurora B); experiment: Phospho-Histone H3 Ser10 in cells (Aurora B activity); format: cell-based, human
Protocol: as §1, §2

HeLa Kyoto cells [3] = experiment: DNA content analysis by flow cytometry; format: cell-based, human; details: 48 h, 9 even at 10 μM
Protocol: as §1, with “For rescue experiments, HeLa Kyoto cells were first transfected with GFP-Aurora A, GFP-Aurora AR137A or GFP-Aurora AW277A for 20 h, followed by incubation with 9 for another 20 h before cells were fixed with cold methanol and stained.” left out

[4] = system: Aurora A localization, HeLa Kyoto cells; experiment: Aurora A localization at the mitotic spindle (immunofluorescence); format: cell-based, human; details: overnight
Protocol: as §1
Secondary antibodies were anti-mouse conjugated to Alexa488 or Alexa568, as well as anti-rabbit conjugated to Alexa488 or Alexa568, all used at 1:500 (Invitrogen). Confocal images were acquired on a Zeiss LSM 710 confocal microscope equipped with a Axiocam MRm (B/VVW) CCD camera using a 63×NA 1.0 oil objective and processed in ImageJ and Adobe Photoshop, maintaining relative image intensities within a series.

- IC50 (Aurora A bound to TPX2): 1.4 µM
- IC50 (pThr288 Aurora A): 0.76 µM
- EC50 (HeLa Kyoto cells [1]; cellular activity as summarised in text, read-out: cellular activity EC50): > 1 µM
- EC50 (HeLa Kyoto cells [1]; read-out: phenotypic EC50, defective chromosome alignment during metaphase): 6 µM
- IC50 ([2]; Aurora B/INCENP, cells, read-out: cellular IC50 (pH3)): > 25 µM
SMILES: CCc1ccc(N=C2SC(=Cc3ccnc(Nc4ccc(C(=O)O)cn4)c3)C(=O)N2C)cc1 [Compound 9]
- misaligned chromosomes (HeLa Kyoto cells [1]; 4 μM): ~20%
- misaligned chromosomes (HeLa Kyoto cells [1]; 10 μM): ~80%
- misaligned chromosomes (HeLa Kyoto cells [1]; 25 μM): ~85%
- effect on Aurora B activity in cells [2]: no effect; also recorded: without impairing Aurora B function
- distribution of phospho-Histone H3 Ser10 ([2]; treated cells): remained unchanged
- accumulation of cells with 8N and 16N DNA contents (HeLa Kyoto cells [3]): did not occur
- Aurora A localization at spindle microtubules and centrosomes [4]: notably displaced from the spindle microtubules; also recorded: impairs Aurora A localization at the spindle microtubules
